The target in assay [1] is T1, FK506 Binding Protein 12 kDa (FKBP12) (Homo sapiens, UniProt P62942). Put plainly: TR-FRET competition with fluorescein-labeled SLF. (In general: In TR-FRET formats the signal depends on donor and acceptor labels being close together.)
The target in assay [2] is T1, FK506 Binding Protein 12 kDa (FKBP12). Put plainly: TR-FRET tracer binding.

In general, IC50 refers to the concentration that gives 50% inhibition. Low values mean greater potency in that assay, high ones weaker potency in that assay. Broadly, the Kd is a measure of binding affinity in units of concentration.

T1 sequence (P62942 2-108): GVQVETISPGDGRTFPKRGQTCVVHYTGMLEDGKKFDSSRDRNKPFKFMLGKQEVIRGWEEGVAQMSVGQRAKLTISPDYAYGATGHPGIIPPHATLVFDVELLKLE

The compound `CCC(C)(C)C(=O)C(=O)N1CCCC[C@H]1C(=O)O[C@H](CCc1ccc(OC)c(OC)c1)c1cccc(OCC(=O)O)c1` [SLF-OH] showed an IC50 in assay [1] of 200 nM.
Regarding SLF-Fl, in assay [2], binding was put at a Kd of 30 nM.
